Measurements reported in patent US9169252B2 (BRISTOL-MYERS SQUIBB COMPANY, priority 2014, dated 2015).
Read-outs that look alike come from different tables or passages of the source.

Assays:
IRAK4 = IRAK4 (Homo sapiens (Human), UniProt Q9NWZ3); experiment: IRAK4 Inhibition Assay; type: biochemical; details: ATP 500 μM, read-out: IRAK4 IC50
Procedure, shortened: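 Mobility-shift readout: fluorescent substrate and phosphoproduct resolved electrophoretically on Caliper LabChip 3000 after EDTA quench (35 mM). Enzyme reaction of IRAK4, substrates and test compound ran 60 min at room temperature.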

[1] = system: TLR2 induced IL-6 in peripheral blood mononuclear cells (PBMCs); experiment: PBMC TLR2 Induced IL-6 Assay; type: cell-based, human; details: IL-6 by ELISA; for EC50: read-out: Cell EC50; for IC50: read-out: Cell IC50
Procedure, shortened: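 Lipoteichoic acid at 10 µg/ml served as TLR2 stimulus for 5 hours, following a 30-minute compound pretreatment at 37° C. Cells were Ficoll-isolated human PBMCs, 250000 cells/well, cultured in RPMI plus 10% heat-inactivated FCS.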

[2] = Homo sapiens, PBMC, human PBMCs, lipoteichoic acid stimulated
[3] = Homo sapiens, PBMC, PBMC TLR2 Induced IL-6 Assay, lipoteichoic acid stimulation

Sequence of IRAK4 (Q9NWZ3 whole entry, species assumed): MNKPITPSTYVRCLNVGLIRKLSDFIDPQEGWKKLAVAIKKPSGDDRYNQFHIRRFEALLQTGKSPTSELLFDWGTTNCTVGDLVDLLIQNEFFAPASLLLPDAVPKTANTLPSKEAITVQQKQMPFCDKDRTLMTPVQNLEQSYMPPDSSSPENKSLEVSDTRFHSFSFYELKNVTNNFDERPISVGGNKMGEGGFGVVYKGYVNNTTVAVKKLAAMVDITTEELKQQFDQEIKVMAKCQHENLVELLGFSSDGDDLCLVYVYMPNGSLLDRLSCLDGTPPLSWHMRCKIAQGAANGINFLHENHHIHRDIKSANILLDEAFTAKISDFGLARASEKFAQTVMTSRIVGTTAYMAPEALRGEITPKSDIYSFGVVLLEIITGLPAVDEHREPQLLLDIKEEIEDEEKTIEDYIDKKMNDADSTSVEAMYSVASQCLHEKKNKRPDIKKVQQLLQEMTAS

Structure (SMILES)	IC50 (IRAK4; IRAK4 0.6 nM) [µM]	IC50 [1, 2] [µM]	IC50 (IRAK4; IRAK4 Inhibition Assay) [µM]	also measured
CC(C)(O)[C@H](F)CNC(=O)c1cnc(-n2ccc3cc(C#N)cnc32)cc1N[C@@H]1CCN(C(=O)CC(F)(F)F)C1 [Example 473]	0.0041	0.483		EC50 [1, 2]: 0.238 µM
CC(C)(O)[C@H](F)CNC(=O)c1cnc(-n2ncc3cc(F)cnc32)cc1NC1CCC(F)C1 (single isomer, unassigned) [Example 618]	0.0058			EC50 [1, 2]: 0.127 µM
CC(C)Nc1cc(-n2ncc3cc(C#N)cnc32)ncc1C(=O)NCc1nn[nH]n1 [Example 566]	0.0172			EC50 [1, 2]: 0.637 µM
CC(C)(CN)CNc1cc(-n2ncc3cc(C#N)cnc32)ncc1C(=O)NC[C@@H](F)C(C)(C)O [Example 585]	0.0085	0.147		
CC(C)Nc1cc(-n2ncc3cc(C#N)c(N)nc32)ncc1C(=O)NCCC(C)(C)F [Example 307]			0.002	IC50 [1, 3]: 0.127 µM
CC(C)(O)[C@H](F)CNC(=O)c1cnc(-n2ncc3cc(C#N)cnc32)cc1NC1CC(F)(F)C1 [Example 644]	0.0043	0.089		
CC(C)Nc1cc(-n2ncc3cc(Cl)cnc32)ncc1C(=O)NC[C@@H](F)C(C)(C)F [Example 330]			0.0043	IC50 [1, 3]: 0.512 µM
CC(C)(O)[C@H](F)CNC(=O)c1cnc(-n2ncc3cc(C#N)cnc32)cc1NC1CCOCC1 [Example 141, (R)-6-(5-cyano-1H-pyrazolo[3,4-b]pyridin-1-yl)-N-(2-fluoro-3-hydroxy-3-methylbutyl)-4-((tetrahydro-2H-pyran-4-yl)amino)nicotinamide]			0.0022	EC50 [1, 3]: 0.087 µM
CC(C)(O)[C@H](F)CNC(=O)c1cnc(-n2ccc3cc(C#N)cnc32)cc1NC1CCN(S(C)(=O)=O)CC1 [Example 463]	0.0017			EC50 [1, 2]: 0.023 µM
CC(C)(O)[C@H](F)CNC(=O)c1cnc(-n2ccc3cc(C#N)cnc32)cc1Nc1cccc(O)c1 [Example 46, (R)-6-(5-cyano-1H-pyrrolo[2,3-b]pyridin-1-yl)-N-(2-fluoro-3-hydroxy-3-methylbutyl)-4-((3-hydroxyphenyl)amino)nicotinamide]			0.0022	EC50 [1, 3]: 0.023 µM
C[C@H](F)CNc1cc(-n2ncc3cc(C#N)c(N)nc32)ncc1C(=O)NC[C@@H](F)C(C)(C)O [Example 590]	0.0019	0.129		
CC(C)(O)[C@H](F)CNC(=O)c1cnc(-n2ncc3cc(C#N)cnc32)cc1Nc1cc(C2CC2)n[nH]1 [Example 404]	0.0011	0.164		
COC(C)(C)[C@H](F)CNC(=O)c1cnc(-n2ncc3cc(C#N)cnc32)cc1NC(C)C [Example 200]			0.0028	EC50 [1, 3]: 0.079 µM
CC[C@@H](C)Nc1cc(-n2ncc3cc(C#N)cnc32)ncc1C(=O)NCCC(C)(C)O [Example 193, (R)-4-(sec-Butylamino)-6-(5-cyano-1H-pyrazolo[3,4-b]pyridin-1-yl)-N-(3-hydroxy-3-methylbutyl)nicotinamide]			0.0034	IC50 [1, 3]: 0.287 µM
CC(C)(O)[C@H](F)CNC(=O)c1cnc(-n2ccc3cc(C#N)cnc32)cc1NC1COCC1(F)F (single isomer, unassigned) [Example 484]	0.0035			IC50 ([1]; human PBMCs, lipoteichoic acid stimulated): 0.282 µM
CNC(=O)[C@H]1CC[C@H](NC(=O)c2cnc(-n3ccc4cncnc43)cc2NC(C)C)CC1 [Example 81, 4-(isopropylamino)-N-((trans)-4-(methylcarbamoyl)cyclohexyl)-6-(7H-pyrrolo[2,3-d]pyrimidin-7-yl)nicotinamide]			0.0142	EC50 [1, 3]: 0.121 µM; IC50 [1, 3]: 0.565 µM
CC(C)Nc1cc(-n2ccc3cc(C#N)cnc32)ncc1C(=O)NC12CCC(O)(CC1)C2 [Example 14, 6-(5-cyano-1H-pyrrolo[2,3-b]pyridin-1-yl)-N-(4-hydroxybicyclo[2.2.1]heptan-1-yl)-4-(isopropylamino)nicotinamide]			0.0148	EC50 [1, 3]: 0.286 µM
CC(C)(O)[C@H](F)CNC(=O)c1cnc(-n2ccc3cc(C#N)cnc32)cc1N[C@H]1CC[C@H](C(N)=O)CC1 [Example 486]	0.0012	0.177		
